Calls of active or inactive are those of the source. No cut-off for these calls is given here.
Legend:
[1] = Cytotoxicity against human Hep3B cells assessed as cell viability at 12.5 ug/ml measured by MTT assay; format: toxicity, cell-based, Hep 3B2; details: at 12.5 µg/mL, read-out: Activity
[2] = Cytotoxicity against human Hep3B cells assessed as cell viability at 100 ug/ml measured by MTT assay; format: toxicity, cell-based, Hep 3B2; details: at 100 µg/mL, read-out: Activity
Egl nine homolog 1 = Egl nine homolog 1 (Homo sapiens, UniProt Q9GZT9); assay: Inhibition of PHD2 in human Hep3B cells assessed as increase in EPO production measured after 24 hrs by ELISA; format: cell-based
Mus musculus = assay: In vivo inhibition of PHD2 in ICR mouse assessed as increase in serum EPO production at 10 mg/kg, po and measured after 4 hrs by ELISA; format: functional, organism-based

Egl nine homolog 1, sequence (Q9GZT9 whole entry): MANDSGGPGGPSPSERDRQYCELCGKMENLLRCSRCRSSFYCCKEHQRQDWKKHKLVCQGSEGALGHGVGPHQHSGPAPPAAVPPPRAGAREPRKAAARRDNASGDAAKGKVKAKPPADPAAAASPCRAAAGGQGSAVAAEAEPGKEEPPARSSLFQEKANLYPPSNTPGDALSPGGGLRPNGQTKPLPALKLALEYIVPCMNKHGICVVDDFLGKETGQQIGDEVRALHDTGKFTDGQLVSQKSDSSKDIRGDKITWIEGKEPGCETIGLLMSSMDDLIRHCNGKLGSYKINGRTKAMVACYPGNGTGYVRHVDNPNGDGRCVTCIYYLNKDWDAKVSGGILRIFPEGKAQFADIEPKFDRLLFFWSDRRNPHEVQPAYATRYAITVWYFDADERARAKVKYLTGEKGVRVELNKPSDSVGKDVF

O=C(O)CNC(=O)c1cnc(NS(=O)(=O)c2ccc(Cl)c(Cl)c2)nc1O
viability at 12.5 ug/ml [1]: 89.5%
viability at 100 ug/ml [2]: 90.9%

O=C(O)CNC(=O)c1cnc(NS(=O)(=O)c2ccc(Cl)cc2)nc1O
viability at 12.5 ug/ml [1]: 85.5%
viability at 100 ug/ml [2]: 93.4%

O=C(O)CNC(=O)c1cnc(NS(=O)(=O)c2cccc(Cl)c2)nc1O
EC50 (Egl nine homolog 1): 1.25 µM
inhibition (Mus musculus): Active
viability at 12.5 ug/ml [1]: 95.7%
viability at 100 ug/ml [2]: 84.4%

Cc1nc(C(=O)NCC(=O)O)c(O)c2ccc(Oc3ccccc3)cc12 [ROXADUSTAT]
inhibition (Mus musculus): Active
viability at 12.5 ug/ml [1]: 89.9%
viability at 100 ug/ml [2]: 58.5%

O=C(O)CNC(=O)c1cnc(NS(=O)(=O)c2ccccc2)nc1O
inhibition (Mus musculus): Active

O=C(O)CNC(=O)c1cnc(NS(=O)(=O)c2ccc(-c3ccccc3)cc2)nc1O
inhibition (Mus musculus): Active
viability at 12.5 ug/ml [1]: 91.9%
viability at 100 ug/ml [2]: 73.4%

COc1ccc(S(=O)(=O)Nc2ncc(C(=O)NCC(=O)O)c(O)n2)cc1
inhibition (Mus musculus): Active
viability at 12.5 ug/ml [1]: 105%
viability at 100 ug/ml [2]: 110%

Cc1ccc(S(=O)(=O)Nc2ncc(C(=O)NCC(=O)O)c(O)n2)cc1
EC50 (Egl nine homolog 1): 9.27 µM
viability at 12.5 ug/ml [1]: 98.5%
viability at 100 ug/ml [2]: 102%

O=C(O)CNC(=O)c1cnc(NS(=O)(=O)Cc2ccccc2)nc1O
inhibition (Mus musculus): Active
viability at 12.5 ug/ml [1]: 90%
viability at 100 ug/ml [2]: 87.5%

O=C(O)CNC(=O)c1cnc(NS(=O)(=O)c2ccc(C(F)(F)F)cc2)nc1O
inhibition (Mus musculus): Active
viability at 12.5 ug/ml [1]: 97.2%
viability at 100 ug/ml [2]: 95.8%

O=C(O)CNC(=O)c1cnc(NS(=O)(=O)c2ccc(Br)cc2)nc1O
EC50 (Egl nine homolog 1): 7.97 µM
viability at 12.5 ug/ml [1]: 100%
viability at 100 ug/ml [2]: 116%

Reference: ChEMBL document CHEMBL5214949, “Synthesis and biological evaluation of (4-hydroxy-2-(substitued sulfonamido)pyrimidine-5-carbonyl)glycines as oral erythropoietin secretagogues” (Bioorg Med Chem Lett, 2022)
